Measurements taken from patent publication US20050170041A1, “Chewing gum compositions comprising monatin and methods for making same” (Cargill, Inc., priority 2003, published 2005).
Entries after “also recorded” stand apart in the source; their conditions may differ.

Assays:
[1] = Quantitative synergy of monatin in blends with other sweeteners; assay type: in vivo
[2] = Stability of monatin at pH 3 with increasing temperatures; assay type: physicochemical; conditions: synthetic monatin
Procedure: A sample of synthetic monatin was subjected to pH 3 at temperatures of 25° C., 50° C. and 100° C. At room temperature and pH 3, a 14% loss in monatin was observed over a period of 48 hours. This loss was attributed to lactone formation. At 50° C. and pH 3, a 23% loss in monatin was observed over a period of 48 hours. This loss was attributed to lactone formation and the buildup of an unknown compound after about 15.5 minutes. […] The major detectable component was an unknown at 15.5 minutes.

[3] = Stability of monatin at high temperature (80° C.) and neutral pH, LC-MS; assay type: physicochemical; conditions: pH 7, 75 ppm, after 7-35 days, synthetic ~96% 2R,4R/2S,4S
Procedure: A 100 milliliter solution of 75 ppm monatin at pH 7 was used as a stock solution. The synthetic monatin sample contained approximately 96% of the 2R,4R/2S,4S enantiomeric pair and 4% of the 2R,4S/2S,4R enantiomeric pair. Samples were incubated at 80° C. and pH 7 for the duration of the experiment and samples were withdrawn at 0, 1, 2, 3, 4 hours and 1, 2, 4, 7, 14, 21 and 35 days. All experimental conditions were run in duplicate.
A response curve was established for both detected diastereomer peaks of the synthetic monatin. A range of 5-150 ppm was bracketed with the synthetic monatin standard dissolved in DI water. Separation of the two diastereomer peaks was accomplished using a 3.9×150 mm Novapak C18 (Waters Corporation) HPLC column. Ultraviolet-Visible (UV) and Mass Spectrometer (MS) detectors were used in series for detection and quantitation. Monatin and its lactone peak each have a UVmax at 279 nm that aided in precise detection. Quantification was done by acquiring Selected Ion Monitoring (SIM) scan of 293.3 m/z and 275.3 m/z in positive-ion electrospray mode.

[4] = Sensory stability of monatin and aspartame at pH 2.5, 3.0, 4.0 at 40° C.; assay type: physicochemical; conditions: for Rate constant (k) of sweetness loss: 40° C., pseudo-first order assumed; for SEV Monatin / Retention of Monatin Sweetness: stored at 40° C., monatin ~55 ppm
Procedure: The sensory stability of monatin solutions prepared at pH 2.5, 3.0 and 4.0 and stored at 40° C. was monitored for 100 days. Loss of sweetness from these solutions was compared with the losses of sweetness from aspartame solutions prepared and stored under identical conditions.
The sensory stability of monatin (8% SEV, ˜55 ppm, synthetic blend containing approximately 96% of the 2R,4R/2S, 4S enantiometric pair and 4% of the 2R,4S/2S,4R enantiometric pair) in phosphate/citrate buffers having a pH of 2.5, 3.0, and 4.0 was examined after storage at 40° C. The stability of monatin was compared to that of aspartame (400 ppm) in the same buffers. Three sucrose reference solutions were prepared in the same phosphate/citrate buffers as the monatin and aspartame solutions. All prepared solutions were stored in the dark.
The sweetness of each sweetener relative to sucrose was assessed in duplicate by a panel (n=8) of trained sensory evaluators experienced in the sweetness estimation procedure. All samples (in the same buffers) were served in duplicate at a temperature of 22° C.±1° C. Monatin (test) solutions, coded with 3 digit random number codes were presented individually to panelists, in random order. Sucrose reference standards, ranging from 4.0-10.0% (w/v) sucrose, increasing in steps of 0.5% (w/v) sucrose were also provided. Panelists were asked to estimate sweetness by comparing the sweetness of the test solution to the sucrose standards. This was carried out by taking 3 sips of the test solution, followed by a sip of water, followed by 3 sips of sucrose standard followed by a sip of water, etc. Panelists were encouraged to estimate the sweetness to one decimal place, e.g., 6.8, 8.5. A five minute rest period was imposed between evaluating the test solutions. Panelists were also asked to rinse well and eat a cracker to reduce any potential carry over effects.
If a pseudo-first order breakdown reaction is assumed, a plot of logn percentage retention versus time (logn % RTN v. t) allows estimation of the half-life (t½) and rate constant (k) of sweetness loss under any given set of conditions. In so doing, the kinetics of monatin and aspartame sweetness loss may be summarized as follows in Table 14.

- loss in monatin ([2]; 50° C., pH 3, 48 hours): 23%
- loss in monatin ([2]; 100° C., pH 3, after 24 hours): nearly all monatin was lost
- loss in monatin ([2]; room temperature (25° C.), pH 3, 48 hours): 14%
- degree of degradation [3]: insignificant
- Rate constant (k) of sweetness loss ([4]; pH 2.5): 0.011 day⁻¹
- Sweetness Retained ([4]; pH 2.5, after 100 days storage at 40° C.): 29%
- Retention of Monatin Sweetness ([4]; pH 2.5, day 1): 93.3%
- Retention of Monatin Sweetness ([4]; pH 2.5, day 2): 91.2%
- Retention of Monatin Sweetness ([4]; pH 2.5, day 3): 88.4%
- Retention of Monatin Sweetness ([4]; pH 2.5, day 4): 85.2%
- Retention of Monatin Sweetness ([4]; pH 2.5, day 7): 82.7%
- Retention of Monatin Sweetness ([4]; pH 2.5, day 8): 81.4%
- Retention of Monatin Sweetness ([4]; pH 2.5, day 9): 80.1%
- Retention of Monatin Sweetness ([4]; pH 2.5, day 11): 78.6%
- Retention of Monatin Sweetness ([4]; pH 2.5, day 50): 62.7%
- Retention of Monatin Sweetness ([4]; pH 2.5, day 100): 28.6%
- Rate constant (k) of sweetness loss ([4]; pH 3.0): 0.006 day⁻¹
- Sweetness Retained ([4]; pH 3.0, after 100 days storage at 40° C.): 58%
- Retention of Monatin Sweetness ([4]; pH 3.0, day 1): 99.6%
- Retention of Monatin Sweetness ([4]; pH 3.0, day 2): 93.2%
- Retention of Monatin Sweetness ([4]; pH 3.0, day 3): 91.4%
- Retention of Monatin Sweetness ([4]; pH 3.0, day 4): 91.6%
- Retention of Monatin Sweetness ([4]; pH 3.0, day 7): 85.3%
- Retention of Monatin Sweetness ([4]; pH 3.0, day 8): 83.8%
- Retention of Monatin Sweetness ([4]; pH 3.0, day 9): 83.1%
- Retention of Monatin Sweetness ([4]; pH 3.0, day 11): 83.1%
- Retention of Monatin Sweetness ([4]; pH 3.0, day 50): 72.3%
- Retention of Monatin Sweetness ([4]; pH 3.0, day 100): 57.9%
- Rate constant (k) of sweetness loss ([4]; pH 4.0): 0.003 day⁻¹
- Sweetness Retained ([4]; pH 4.0, after 100 days storage at 40° C.): 78%
- Retention of Monatin Sweetness ([4]; pH 4.0, day 3): 95.7%
- Retention of Monatin Sweetness ([4]; pH 4.0, day 8): 86.8%
- Retention of Monatin Sweetness ([4]; pH 4.0, day 11): 85.9%
- Retention of Monatin Sweetness ([4]; pH 4.0, day 17): 82.4%
- Retention of Monatin Sweetness ([4]; pH 4.0, day 24): 84.5%
- Retention of Monatin Sweetness ([4]; pH 4.0, day 50): 82.9%
- Retention of Monatin Sweetness ([4]; pH 4.0, day 100): 78.4%
Structure (SMILES): NC(CC(O)(Cc1c[nH]c2ccccc12)C(=O)O)C(=O)O (centres unmarked) [Monatin, 2-hydroxy-2-(indol-3-ylmethyl)-4-aminoglutaric acid]
- quantitative synergy with cyclamates ([1]; blend with cyclamates): quantitatively synergistic
- quantitative synergy with other sweeteners ([1]; with aspartame, saccharin, acesulfame-K, sucralose, or carbohydrate sweeteners): no significant quantitative synergy
- stability of sweetness compared with aspartame ([4]; acidic conditions and storage at 40° C.): more stable sweetness than does aspartame
- percentage retention of sweetness compared with aspartame ([4]; each pH (2.5, 3.0, 4.0), after 100 days storage at 40° C.): greater than that retained with aspartame; also recorded: greater than that retained from aspartame
- SEV Monatin ([4]; pH 2.5, day 0): 7.35 % sucrose
- SEV Monatin ([4]; pH 2.5, day 1): 6.86 % sucrose
- SEV Monatin ([4]; pH 2.5, day 2): 6.70 % sucrose
- SEV Monatin ([4]; pH 2.5, day 3): 6.50 % sucrose
- SEV Monatin ([4]; pH 2.5, day 4): 6.26 % sucrose
- SEV Monatin ([4]; pH 2.5, day 7): 6.08 % sucrose
- SEV Monatin ([4]; pH 2.5, day 8): 5.98 % sucrose
- SEV Monatin ([4]; pH 2.5, day 9): 5.89 % sucrose
- SEV Monatin ([4]; pH 2.5, day 11): 5.78 % sucrose
- SEV Monatin ([4]; pH 2.5, day 50): 4.61 % sucrose
- SEV Monatin ([4]; pH 2.5, day 100): 2.10 % sucrose
- SEV Monatin ([4]; pH 3.0, day 0): 7.08 % sucrose
- SEV Monatin ([4]; pH 3.0, day 1): 7.05 % sucrose
- SEV Monatin ([4]; pH 3.0, day 2): 6.60 % sucrose
- SEV Monatin ([4]; pH 3.0, day 3): 6.47 % sucrose
- SEV Monatin ([4]; pH 3.0, day 4): 6.49 % sucrose
- SEV Monatin ([4]; pH 3.0, day 7): 6.04 % sucrose
- SEV Monatin ([4]; pH 3.0, day 8): 5.93 % sucrose
- SEV Monatin ([4]; pH 3.0, day 9): 5.88 % sucrose
- SEV Monatin ([4]; pH 3.0, day 11): 5.88 % sucrose
- SEV Monatin ([4]; pH 3.0, day 50): 5.12 % sucrose
- SEV Monatin ([4]; pH 3.0, day 100): 4.10 % sucrose
- SEV Monatin ([4]; pH 4.0, day 0): 7.40 % sucrose
- SEV Monatin ([4]; pH 4.0, day 3): 7.08 % sucrose
- SEV Monatin ([4]; pH 4.0, day 8): 6.42 % sucrose
- SEV Monatin ([4]; pH 4.0, day 11): 6.36 % sucrose
- SEV Monatin ([4]; pH 4.0, day 17): 6.10 % sucrose
- SEV Monatin ([4]; pH 4.0, day 24): 6.25 % sucrose
- SEV Monatin ([4]; pH 4.0, day 50): 6.14 % sucrose
- SEV Monatin ([4]; pH 4.0, day 100): 5.80 % sucrose
